Target: T1, PfGDPD-HA (PfGDPD; glycerophosphodiesterase) (Plasmodium falciparum, UniProt Q8IM31)
T1 construct: gene PF3D7_1406300; endogenous locus, recodonised segment 24-475 aa, C-terminal 3xHA tag kept; 475-residue precursor with N-terminal signal peptide
Test: LC-MS/MS of GPC consumption and choline release by bead-bound affinity-purified enzyme
Format: biochemical
Details: enzyme immobilised on anti-HA beads; 100 mM HEPES pH 7.5, 150 mM NaCl, 10 mM MgCl2, 37°C; GPC 1 mM (Methods) or 10 mM (Figure 6 legend)

T1 sequence (Q8IM31 entry or part of it): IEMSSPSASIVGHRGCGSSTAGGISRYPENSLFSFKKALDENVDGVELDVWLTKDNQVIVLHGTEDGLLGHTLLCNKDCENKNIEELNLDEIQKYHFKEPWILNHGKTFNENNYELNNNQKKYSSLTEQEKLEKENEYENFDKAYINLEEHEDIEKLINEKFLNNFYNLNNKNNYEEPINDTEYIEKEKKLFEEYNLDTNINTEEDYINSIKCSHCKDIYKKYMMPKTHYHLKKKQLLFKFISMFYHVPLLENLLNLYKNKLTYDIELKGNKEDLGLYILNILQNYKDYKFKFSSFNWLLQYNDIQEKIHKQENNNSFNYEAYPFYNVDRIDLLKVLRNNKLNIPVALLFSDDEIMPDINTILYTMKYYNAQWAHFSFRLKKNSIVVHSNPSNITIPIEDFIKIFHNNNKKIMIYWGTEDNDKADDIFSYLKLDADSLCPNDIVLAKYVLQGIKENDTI

C[N+](C)(C)CCOP(=O)([O-])OC[C@H](O)CO [GPC]
LC-MS/MS of GPC consumption and choline release by bead-bound affinity-purified: resulted in the time-dependent appearance of choline with a concomitant decrease in GPC levels
